Data reported in patent publication US12318375B2, “Method of treatment with tradipitant” (Vanda Pharmaceuticals Inc., priority 2015, dated 2025).

Assays:
[1] = Example 2: plasma concentration of tradipitant in healthy subjects (85 mg qd, then Q12H); format: in vivo, human
Experimental: In one study, healthy subject participants were orally administered 85 mg tradipitant on study day 3, and then 85 mg tradipitant Q12H on study days 4-16. Plasma concentration levels of tradipitant were measured on each of day 3, day 7, and day 11.
This study illustrated that administration of 85 mg tradipitant qd (on day 3) produced an average plasma concentration over hours 0-12 that was about 50% of the plasma concentration observed in the PM group in Example 1. On days 7 and 11, the average plasma concentration over hours 0-12 following administration of 85 mg bid (specifically, Q12H) tradipitant was about 150% of the plasma concentration observed in the PM group in Example 1. The average plasma concentration over hours 0-12 at each point was determined by dividing the AUC for hours 0-12 (in (hr.)×(ng/mL)) by 12 hours.

[2] = test system: chronic pruritus in patients with atopic dermatitis; assay: Phase II proof of concept clinical study VP-VLY-686-2101: efficacy on pruritus measures; format: in vivo, human; settings: for VAS Average change (primary): tradipitant 100 mg qd oral in the evening
Experimental: A phase II proof of concept clinical study (Study ID VP-VLY-686-2101, “Proof of Concept of VLY-686 in Subjects With Treatment-Resistant Pruritus Associated With Atopic Dermatitis”) was conducted, investigating the safety and efficacy of tradipitant as a monotherapy in the treatment of chronic pruritus in patients with atopic dermatitis.
In the study, patients with a Visual Analog Scale (VAS) score of greater than 70 mm during one of the two days preceding inclusion into the study were randomized to receive orally either 100 mg of tradipitant (N=34) or placebo (N=35) once a day in the evening. In the tradipitant arm of the study, tradipitant was orally administered to patients in capsules with standard excipients in an amount of 100 mg in the evening. Clinical assessments were made after 3 or 4 weeks of daily treatment, or at both 3 weeks and 4 weeks, each assessment being done in the morning of the day after last treatment or in the afternoon of the day after last treatment. The tradipitant was administered in an immediate release form comprising tradipitant and pharmaceutically acceptable excipients in a capsule. The tradipitant particle size was approximately: D10: <5 um, D50: <10 um, and D90: <25 um, wherein D10 means that 10% of the particles are of the indicated mean particle size, D50 means that 50% of the particles are of the indicated mean particle size, and D90 means that 90% of the particles are of the indicated mean particle size.
Baseline VAS scores were 76.1 and 77.2 for the tradipitant and placebo arms respectively. Efficacy was evaluated through a number of clinical research instruments. In addition, at the time of efficacy evaluation blood samples were collected for PK analysis in order to determine the plasma levels of tradipitant.

average plasma concentration over hours 0-12 (AUC 0-12 divided by 12 hours) relative to PM group in Example 1 ([1]; day 3, 85 mg qd oral): about 50%
average plasma concentration over hours 0-12 (AUC 0-12 divided by 12 hours) relative to PM group in Example 1 ([1]; days 7 and 11, 85 mg bid (Q12H) oral): about 150%
Compound: O=C(c1ccccc1Cl)c1cccnc1-c1nnn(Cc2cc(C(F)(F)F)cc(C(F)(F)F)c2)c1-c1ccncc1 [Tradipitant, {2-[1-(3,5-Bistrifluoromethylbenzyl)-5-pyridin-4-yl-1H-[1,2,3]triazol-4-yl]-pyridin-3-yl}-(2-chlorophenyl)-methanone]
endpoints that correspond to the underlying disease (SKINDEX, SCORAD objective, EASI and DLQI) compared with placebo ([2]; 100 mg qd, 4-week study): did not show any significant difference from placebo
VAS Average change (primary) ([2]; AM group (morning assessment), N = 18, after 3 or 4 weeks): −54
CGIC, Diff tradipitant vs placebo ([2]; AM group, 100 mg qd): −1.15
DLQI change, Diff tradipitant vs placebo ([2]; AM group, 100 mg qd): 0.35
PBI, Diff tradipitant vs placebo ([2]; AM group, 100 mg qd): 0.74
SCORAD change, Diff tradipitant vs placebo ([2]; AM group, 100 mg qd): −5.23
VAS Worst change, Diff tradipitant vs placebo ([2]; AM group, 100 mg qd): −21.9
VRS change, Diff tradipitant vs placebo ([2]; AM group, 100 mg qd): −0.79
PBI ([2]; AM group, 100 mg qd, N = 18): 1.47
VAS Average change, Diff tradipitant vs placebo ([2]; AM group, 100 mg qd, tradipitant N = 18 vs placebo N = 17): −23.7
VAS Average change (primary) ([2]; PM group (afternoon assessment), N = 13, after 3 or 4 weeks): −28.8
CGIC, Diff tradipitant vs placebo ([2]; PM group, 100 mg qd): 0.19
DLQI change, Diff tradipitant vs placebo ([2]; PM group, 100 mg qd): −1.89
PBI, Diff tradipitant vs placebo ([2]; PM group, 100 mg qd): −0.39
SCORAD change, Diff tradipitant vs placebo ([2]; PM group, 100 mg qd): 0.88
VAS Worst change, Diff tradipitant vs placebo ([2]; PM group, 100 mg qd): 8.99
VRS change, Diff tradipitant vs placebo ([2]; PM group, 100 mg qd): −0.13
efficacy analysis of pruritus measures compared with placebo ([2]; PM group, 100 mg qd): no significant differences between tradipitant and placebo
PBI ([2]; PM group, 100 mg qd, N = 13): 1.01
VAS Average change, Diff tradipitant vs placebo ([2]; PM group, 100 mg qd, tradipitant N = 13 vs placebo N = 11): 5.82
VAS change from baseline compared with placebo (pre-specified primary endpoint) ([2]; all patients, 100 mg qd): no statistical difference from placebo
